Assay results: patent EP1982730A1, “Pharmaceutical composition comprising l-carnitine and an antagonist of the membrane adenosine receptors, derivatives and/or pharmaceutically acceptable salts thereof, and their use in the preparation of drugs with non-toxic effect to inhibit the proliferation of neoplastic cells” (Farmacetika Limited, priority 2007, dated 2008)

What was measured:
[1] = tested on: human peripheral blood mononuclear cells (PBMCs) in healthy volunteers; conditions: lymphocytes from healthy volunteers stimulated with PHA; cited from earlier work
[2] = tested on: peripheral blood mononuclear cells (PBMC) from patients affected by chronic lymphocytic leukemia; test: PHA-induced cell blast formation / proliferation (BrdU incorporation ELISA) in ex vivo PBMC cultures; type: cell-based, human; conditions: for % reduction in cell blast formation: PBMC stimulated with PHA 20 ug/mL
Source text: The protocol for isolation and treatment of cells from patients affected by chronic lymphocytic leukemia comprised the following steps:
• Blood sample taken between 8:00 and 9:30 a.m.; • Blood sample sent to the laboratory to be processed immediately; • Evaluation of the total volume of the blood received to proceed with 1:2 dilution with sterile saline solution; • Isolation of the mononuclear cells performed by layering of the blood on a Ficoll-Paque Plus density gradient at a ratio of 1:3, ensuring that the two phases remain separate; • Centrifugation for 40 minutes at 1800 rpm at room temperature; • Recovery of the PBMC layers in the interface between the Ficoll and the plasma; • Washing in saline solution to eliminate residual Ficoll centrifuging at 1200 rpm for 7 minutes at 4°C; • Washing in RPM1 1640 medium, centrifuging at 1200 rpm for 7 minutes at 4°C; • Pellet suspension in complete medium, i.e. RPM1 1640 with the addition of L-glutamine 4mM, penicillin at 50U/ml, streptomycin […] and with 10% of FBS (fetal bovine serum); • Preparation of a 10% cell suspension with Trypan Blue dye and counting of cells under the microscope with Burker camera; cell vitality is also checked using the dye exclusion test; • Counting of the total number of cells and adjustment of the cell concentration to the required value.
The cells thus isolated were cultured in the complete culture medium, and a culture was prepared placing 1 mL of cell suspension in a 5 mL polypropylene […] (Falcon) to study cytokine expression and production, and 100 microL in each microplate well. To induce cell blast formation, mitogen phytohemagglutinin (PHA) (20 ug/mL (Pharmacia) selective for T-lymphocytes was added.
The control culture was prepared without adding any mitogenic substance.
The substance to be tested, i.e. L-carnitine and L-carnitine + suramin, at the desired concentration, was added both to cultures with and to those without mitogen. The cultures were incubated in an incubator at 37°C, in a humidified environment with 5% carbon dioxide added.
Evaluation of cell proliferation and therefore of DNA synthesis by isolated and cultured PBMC was performed after stimulation with mitogen and using the Biotrak ELISA system (Amersham Biosciences Europe GmbH, Milan, Italy), based on the measure of incorporation of 5-bromo-2-deoxyuridine (BrdU), pyrimidine analog, into the newly synthesized DNA. 18 hours before the end of incubation 10 microl of culture medium containing BrdU at a final concentration of 10 micromol/L were added to the cultures. At the end of incubation the culture medium was removed by centrifuging the plates at 300 rpm for 10 minutes. Subsequently, the plates were kept in an oven at 60°C for one hour. This was followed by two incubations of 30 minutes each, first in the presence of a fixative required for cell fixation and DNA denaturation, then in the presence of a blocking buffer. After addition of the anti-BrdU antibody, combined with the enzyme peroxidase, the plates were incubated for 90 minutes, after which three washes of 5 minutes each were performed, using PBS. The substrate used for the colorimetric reaction consisted of 3,3',5,5'-tetramethylbenzidine. The reaction was blocked after 15 minutes with H2SO4 1M and the optical density was measured at a wavelength of 450 nanometers, using a plate reader spectrophotometer. The PBMC proliferation values in the different wells were expressed as optical density from which the optical density recorded in the control wells without BrdU was subtracted.

C[N+](C)(C)C[C@H](O)CC(=O)[O-] [Carnitine, L-carnitine]
blastogenesis of T lymphocytes caused by phytohemagglutinin (PHA) [1]: inhibits, in a dose-dependent manner | % reduction in cell blast formation ([2]; Patient 1, I.S. 1.9): 30% | % reduction in cell blast formation ([2]; Patient 2, I.S. 3.4): 65% | % reduction in cell blast formation ([2]; Patient 3, I.S. 4.4): 40% | % reduction in cell blast formation ([2]; Patient 4, I.S. 1.6): 24.4% | % reduction in cell blast formation ([2]; Patient 5, I.S. 2.3): 16.5% | proliferation induced with PHA ([2]; all patients, summary in words): reduces the proliferation induced with PHA in all patients
